The values that follow come from US8716228B2, “GPR54 agonists or antagonists for treatment of diseases presenting behavioral abnormalities” (YEDA Research and Development Co. Ltd., priority 2009, dated 2014).

The test system of one experiment is SCID mice. Nature of the experiment: Radial arm water maze (RAWM). It is filed as in vivo, mouse. Conditions: i.p. 100 μl containing 100 μM at beginning of each of two days, vs PBS. Here is the method:
Radial arm water maze (RAWM). Mice were tested for two days on 6 radial arm water maze paradigm in a water pool, as described in Alamed et al. (2006). Briefly, mice received Kp-10 injection in the beginning of each day. On the first day, 15 trials were performed, in trials 1, 3, 5, 7, 9 and 11 the platform was visible, and in all other trials the platform was hidden. On the second day, 12 trials were performed, all of them with hidden platform. The time required to reach the platform and the number of errors (incorrect arm entries) in 1-min time period were recorded (FIG. 11A).
One of the cognitive malfunctions in schizophrenia is deficit in spatial learning and memory. To evaluate whether kisspeptine can improve spatial learning and memory, we studied its effect in the radial arm water maze (RAWM), a hippocampal dependent spatial learning and memory assay. In this task, the mouse must find a platform that is located at one of the six maze arms; the time required to reach the platform and the number of errors along the way are recorded (Alamed et al., 2006) (FIG. 11A). Since wild type mice perform well in this test, the ability of Kp-10 to improve their performance is very limited. Therefore we used immune deficient mice (severe combined immunodeficiency; SCID), which have cognitive deficit manifested by poorer performance in the RAWM test. […]

In another experiment the test system is BDNF. The settings on record: hippocampal slices; cited from earlier work.
The test system of experiment [1] is offspring of poly I:C treated dams. Nature of the experiment: PPI in offspring of poly I:C treated dams (mouse model for schizophrenia). It counts as in vivo. The protocol: Poly I:C administration. Rats or mice were bred, and the first day after copulation was defined as day 1 of pregnancy. On gestation day 15, pregnant animals were injected intravenously with 4.0 mg/kg poly I:C (Sigma-Aldrich, Israel) dissolved in saline, or an equivalent volume of saline as a control. Both rats and mice received the same protocol of poly I:C administration.
Prepulse Inhibition (PPI). PPI testing was performed within startle chambers purchased from Med Associates Inc (Med Associates, St. Albans, Vt., USA). PPI was analyzed as described previously (Kipnis et al., 2004). Briefly, during a period of acclimation, a 65-dB background noise was applied for 5-min, and continued throughout the test session. All sessions for testing of PPI consisted of startle trials (pulse alone, 40-ms, 120-dB), prepulse trials (prepulse 20-ms, 69, 73, 78, or 81 dB followed by a (100-ms delay) pulse), and no-stimulus trials. All sessions were presented in pseudo-random order. The average time between trials was 15 s (range 12-30 s). PPI was calculated as: % PPI=100−{[(startle response for prepulse+pulse)/(startle response for pulse-alone)]×100}. In all the experiments, there were no significant differences between groups in trials of startle reactivity to pulse alone, and in no-stimulation trials. Data from no-stimulation trials are not included in the results because the values obtained were negligible relative to values from trials containing startle stimuli. Reduced PPI is associated with schizophrenia-related behavior. The same protocol was used in mice and rats (FIG. 1A).
Kisspeptin treatment. Mice were injected i.p with 100 μl of 1/10/100 μM Kp-10 peptide (SEQ ID NO:3) (synthesized at the Weizmann Institute of Science, or Sigma-Aldrich, Israel) dissolved in PBS, 30 minutes before the PPI analysis.
The ability of a normal lymphocyte population to reverse abnormal PPI behavior in immune deficient mice, encouraged us to test whether immune cells derived from the offspring of poly I:C treated dams would reverse the abnormal behavior of SCID mice in the PPI test. […]

On to YNWNSFGLRF—NH2 [Kp-10], for which, in the experiment on SCID mice, the “latency time to find the platform” value is on record as “improved” and the number of errors entry was “reduced”. For the same substance, the “BDNF mRNA levels” value with BDNF is “elevate BDNF mRNA levels”. In experiment [1] (single i.p. injection at adolescence (8 weeks), 100 μl containing 100 μM, vs PBS), the “PPI at adulthood (12 weeks)” value was “did not exhibit abnormal PPI”. For the same substance, in experiment [1] (treatment at adulthood (12 weeks) after onset, 100 μl of 100 μM, 30 min before PPI), the PPI entry is given as “improved the abnormal PPI”.
